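48-hour exposure; five concentrations; linearly interpolated endpoints. TGI denotes the concentration required for complete inhibition of growth.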
Tests used:
Test in all cases: inhibition of tumour cell growth, NCI panel, 48 h
[1] = test system: A549 NSCLC
[2] = test system: BT-549 breast
[3] = test system: COLO 205 colon
[4] = test system: MDA-MB-231 breast
[5] = test system: MDA-MB-435
[6] = test system: NCI-H522 lung
[7] = test system: SF-539 CNS
[8] = test system: SK-MEL-28 melanoma
[9] = test system: SK-MEL-5 melanoma
[10] = test system: SNB-75 CNS
[11] = test system: TK-10 renal
[12] = test system: U251 CNS
[13] = test system: UACC-257 melanoma
[14] = test system: HOP-18 NSCLC

| SMILES | TGI [1] [µM] | TGI [2] [µM] | TGI [3] [µM] | TGI [4] [µM] | TGI [5] [µM] | TGI [6] [µM] | TGI [7] [µM] | TGI [8] [µM] | TGI [9] [µM] | TGI [10] [µM] | TGI [11] [µM] | TGI [12] [µM] | TGI [13] [µM] | TGI [14] [µM] |
| --- | --- | --- | --- | --- | --- | --- | --- | --- | --- | --- | --- | --- | --- | --- |
| Cn1c(N)c(/C=C/C(=O)Oc2ccccc2)c(=O)n(C)c1=O | > 100 | > 100 | > 100 | > 100 | > 100 | > 100 | > 100 | > 100 | > 100 | 66.5 | > 100 | > 100 | > 100 | – |
| COC(=O)/C(=N\N)C(C(=O)C(=O)Nc1nc(=S)[nH][nH]1)c1nc2ccc([N+](=O)[O-])cc2[nH]c1=O (stereo not given) | > 100 | – | > 100 | – | – | > 100 | > 100 | > 100 | > 100 | > 100 | > 100 | > 100 | > 100 | > 100 |
| CC1(C)CCC[C@@]2(C)C1CC[C@@]1(CO1)[C@@H]2/C=C\C(C=O)CC=O (stereo not given in full) | > 100 | > 100 | > 100 | > 100 | > 100 | > 100 | > 100 | > 100 | > 100 | > 100 | > 100 | > 100 | > 100 | – |
| Cc1ccc(CN2CCN(Cc3ccc(C)o3)C(C)C2)o1 (stereo not given) | > 100 | > 100 | > 100 | > 100 | > 100 | > 100 | > 100 | > 100 | > 100 | > 100 | > 100 | > 100 | > 100 | – |
| COc1cc(C(=O)OC2CC34CCNC35CC(OC5(OC)C2O)c2cc3c(cc24)OCO3)ccc1O (stereo not given) | > 100 | > 100 | > 100 | > 100 | > 100 | > 100 | > 100 | > 100 | > 100 | > 100 | > 100 | > 100 | > 100 | – |
| CC1=NNC(=O)C1C1C=C(c2c[nH]c3ccccc23)OC1=O (stereo not given) | > 100 | > 100 | > 100 | > 100 | > 100 | > 100 | > 100 | > 100 | > 100 | > 100 | > 100 | > 100 | > 100 | – |
| N#Cc1c(N)c2c(c(-c3ccccc3)c1-c1ccccc1)C(=O)N(O)C2=O | > 100 | > 100 | 52.2 | > 100 | > 100 | > 100 | > 100 | > 100 | > 100 | > 100 | > 100 | > 100 | > 100 | – |
| CC(C)(C)NC(=S)N/N=C/c1ccccn1 | > 100 | > 100 | > 100 | > 100 | > 100 | > 86.9 | 27.6 | > 100 | > 46.4 | > 100 | > 100 | > 100 | – | – |
| COC(=O)/C(C#N)=C/c1cc(C(C)(C)C)c(O)c(C(C)(C)C)c1 | > 100 | 14 | 2.78 | 4.95 | 18.4 | 5.52 | 11 | 15.4 | 3.39 | 17.1 | 12.9 | 11.5 | 6.72 | – |
| Cc1ccc(S(=O)(=O)NNC(=O)Nc2ccc([N+](=O)[O-])cc2)cc1 | > 100 | > 100 | > 100 | > 100 | > 100 | > 100 | > 100 | > 100 | > 100 | > 100 | > 100 | > 100 | > 100 | – |
| Cn1c(=O)[nH]c2c(c1=O)C(=O)CN2 | > 100 | – | > 100 | – | – | – | > 100 | > 100 | > 100 | > 100 | > 100 | > 100 | > 100 | > 100 |
| COc1cc(-c2ccccc2)cn2c1nc1ccccc12 | 51.4 | 32.9 | 39.1 | 49.8 | 43.4 | 40.6 | 50.4 | 33.2 | 37.9 | 43.2 | – | 52.2 | 47.5 | – |
| COc1nc2c(c(=O)[nH]1)N=C(c1ccc(Cl)cc1)CC(c1ccccc1)N2 (stereo not given) | > 100 | > 100 | > 100 | 50.8 | > 100 | 48.6 | 42.1 | 54.1 | 36.8 | 54.9 | – | > 100 | > 100 | – |
| COC(=O)[C@@H]1[C@H]2CC[C@]3(C)[C@@H](OC(C)=O)CC[C@H]3[C@@H]2CC[C@H]1C(C)=O | > 100 | > 100 | > 100 | > 100 | > 100 | > 100 | > 100 | > 100 | > 100 | > 100 | > 100 | > 100 | > 100 | – |
| C[Si](C)(C)/C=C/CN1C(=O)CCC1=O | > 100 | – | > 100 | – | – | > 100 | > 100 | > 100 | > 100 | > 100 | > 100 | > 100 | – | > 100 |
| CC1N=C(c2ccccc2)OC1=O (stereo not given) | > 100 | > 100 | > 100 | > 100 | > 100 | > 100 | > 100 | > 100 | > 100 | > 100 | > 100 | > 100 | > 100 | – |
| C/C(=C\CC/C=C(\C)CC/C=C(\C)CCC1SC1(C)C)CC/C=C(\C)CCC1OC1(C)C (stereo not given) | > 100 | – | > 100 | – | – | > 100 | > 100 | > 100 | > 100 | > 100 | > 100 | > 100 | – | > 100 |
| C=CCN1C(=O)CS/C1=N\NC(=O)CSc1nc2ccccc2c(=O)n1CC | > 100 | > 100 | > 100 | > 100 | > 100 | > 100 | > 100 | > 100 | > 100 | > 100 | > 100 | > 100 | > 100 | – |

Reference: PubChem BioAssay (NCI)
